Data from BindingDB's records for doi:10.1016/j.bmcl.2008.12.086 (Columbia University, 2009).
pEC50: −log10 of the molar value.

How the values were obtained:
[1] = target: T1, Transcription factor p65 (Human, UniProt Q04206); test: Potentiation of TNF-alpha-induced NF-kappaB p65 nuclear translocation in HUVEC cells by immunostaining
[2] = target: T1, Transcription factor p65; test: Induction of NF-kappaB p65 nuclear translocation in HUVEC cells by immunostaining

T1 sequence (Q04206 whole entry): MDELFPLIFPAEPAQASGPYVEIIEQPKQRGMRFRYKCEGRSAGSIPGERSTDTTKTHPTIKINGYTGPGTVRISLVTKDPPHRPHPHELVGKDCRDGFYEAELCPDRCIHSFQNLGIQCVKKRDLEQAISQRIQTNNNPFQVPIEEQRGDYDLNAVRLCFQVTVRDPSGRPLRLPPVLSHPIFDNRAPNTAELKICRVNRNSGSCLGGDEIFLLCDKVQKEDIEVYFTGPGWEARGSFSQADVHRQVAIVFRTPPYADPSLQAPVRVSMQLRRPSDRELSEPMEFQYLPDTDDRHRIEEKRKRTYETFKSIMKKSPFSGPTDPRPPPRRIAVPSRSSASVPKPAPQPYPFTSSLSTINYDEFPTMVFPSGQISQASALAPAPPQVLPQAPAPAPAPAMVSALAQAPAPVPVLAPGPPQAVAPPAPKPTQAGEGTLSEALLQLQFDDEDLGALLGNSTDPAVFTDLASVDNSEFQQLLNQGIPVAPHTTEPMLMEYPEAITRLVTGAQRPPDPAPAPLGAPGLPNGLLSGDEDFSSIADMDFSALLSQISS

In the case of `COc1ccc(Cl)c2nc(-c3cccs3)nc(NN3C(=O)C=C(C)C3=O)c12` [1-(8-chloro-5-methoxy-2-(thiophen-2-yl)quinazolin-4-ylamino)-3-methyl-1H-pyrrole-2,5-dione], the pEC50 [1] was 6.51 and the pEC50 [2] was 5.62.

With `COc1cccc2nc(-c3cccs3)nc(NN3C(=O)C=C(C)C3=O)c12` [1-(5-Methoxy-2-thiophen-2-yl-quinazolin-4-ylamino)-3-methyl-pyrrole-2,5-dione] the pEC50 [1] was 6.42 and the pEC50 [2] was 5.80.

In the case of `COc1ccc2nc(-c3cccs3)nc(NN3C(=O)C=C(C)C3=O)c2c1` [1-(6-methoxy-2-(thiophen-2-yl)quinazolin-4-ylamino)-3-methyl-1H-pyrrole-2,5-dione], the pEC50 [1] was 4.38 and the pEC50 [2] was 5.01.
